According to publication PMC10477481 (The Journal of Biological Chemistry, 2023):

Experiments:
[1] = biological target: T1, recombinant human active MMP-2 (Homo sapiens, UniProt P08253); format: biochemical; conditions: pH 7.4
T1 construct: the mature active enzyme (amino acids: 110–660), expressed in E. coli (Sigma, catalog no.: SRP3118); purchased Sigma SRP3118; host or cells: E. coli
T1 sequence (P08253 110-660): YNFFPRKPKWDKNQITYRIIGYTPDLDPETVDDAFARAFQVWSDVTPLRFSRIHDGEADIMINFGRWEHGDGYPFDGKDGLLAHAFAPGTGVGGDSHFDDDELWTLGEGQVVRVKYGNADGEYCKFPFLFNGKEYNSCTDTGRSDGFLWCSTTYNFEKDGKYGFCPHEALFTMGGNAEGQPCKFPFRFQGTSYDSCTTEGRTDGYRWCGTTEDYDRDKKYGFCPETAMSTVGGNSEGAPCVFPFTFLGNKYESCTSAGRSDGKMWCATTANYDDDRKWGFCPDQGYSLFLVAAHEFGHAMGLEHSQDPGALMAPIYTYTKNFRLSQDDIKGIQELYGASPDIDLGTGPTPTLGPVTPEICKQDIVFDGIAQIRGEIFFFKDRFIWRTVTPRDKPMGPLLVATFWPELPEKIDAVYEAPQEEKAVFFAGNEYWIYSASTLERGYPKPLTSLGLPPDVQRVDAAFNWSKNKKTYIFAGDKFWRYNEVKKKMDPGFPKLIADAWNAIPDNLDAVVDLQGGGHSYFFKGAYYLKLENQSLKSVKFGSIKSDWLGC
Method: The assay was performed using fluorogenic dye-quenched (DQ)-gelatin from pig skin (ThermoFisher Scientific) as substrate and recombinant human MMP-2 enzyme (Sigma; catalog no.: SRP3118), dissolved in water (100 μg/ml), and diluted further in reaction buffer (50 mM Tris, 150 mM NaCl, 5 mM CaCl2, pH = 7.4). The assay (and control) reactions were composed by loading 50 μl enzyme (or buffer), 40 μl inhibitor (or buffer), and 10 μl substrate (or buffer) into wells of a 96-well plate (PS, black, half-area, clear-bottom; Greiner Bio-One) at concentrations needed for the stated final concentrations. […] Immediately thereafter, the plate was placed in a fluorescence plate reader (SpectraMax iD3; Molecular Devices), and fluorescence was measured every 15 min for 3 h (KM measurements) or every 5 min for 1 h (inhibitor measurements) at 37 °C (λexcitation = 484 nm and λemission = 525 nm). KM was determined by measuring V0 at a series of substrate concentrations (1.25, 2.5, 5, 10, 20, and 40 μg/ml) and enzyme concentrations of 2.5, 5, and 10 nM. Thereafter, the lowest enzyme concentration with reasonably good signal-to-noise ratio (2.5 nM) and a substrate concentration (3.5 μg/ml) approximately equivalent with the determined KM value (3.4 μg/ml, i.e., 34 nmol/l as calculated with approximate MW of 100,000 g/mol for DQ gelatin) were applied in the enzyme inhibition study. […]

[2] = biological target: matrix metalloproteinase 2, recombinant (which of the four preparations is not told) (human) (UniProt P08253); test: flow cytometry of protein-coated microbeads (Ig-coated bead test); KD estimated by the authors from the direct binding assays with labeled CTX and the competitive displacement studies together
[3] = system: pro-MMP-2 activated by APMA; conditions: fluorescence-quenched MMP-specific peptide substrate; read-out: KM of FS-6 with MMP; cited from earlier work
Method: The assay was performed using a fluorescence-quenched MMP-specific peptide substrate FS-6 (Sigma; catalog no.: SCP0193, KM >30 μM) ([20]). Recombinantly produced human proMMP2 enzyme, dissolved in reaction buffer (70 mM Tris [pH 8.0], 150 mM NaCl, 5 mM CaCl2, 1 μM ZnCl2, and 0.05% Brij-35) at a concentration of 500 nM, was activated by addition of 1 mM APMA and incubated at 37 °C for 1 h. The assay reaction was then composed by adding 0.5 μl activated enzyme to yield a final concentration of 2.5 nM, 94.5 μl test substance (inhibitor) in reaction buffer, and finally 5 μl substrate to reach a fi ...

[4] = system: kallikrein; conditions: cited from earlier work
Description: Therefore, we produced a CTX-displaying phage clone, customized, and validated the flow cytometry–based cobalt-coated bead test for quantitative assessment of the binding tendency of ligand-displaying phages to target proteins immobilized on the surface of microbeads. To support the validation and to investigate the specificity of bind ...

CNC(=O)[C@H](Cc1c[nH]c2ccccc12)NC(=O)[C@@H](CC(=O)NO)CC(C)C [Ilomastat, ilomastat]
effect on gelatinolytic activity of MMP-2 [1]: concentration-dependent inhibition

chlorotoxin, synthetically produced, with carboxamide C terminus (from UniProt P45639 1-36) (peptide)
Kd [2]: 0.5 to 0.6 µM

Mca-Lys-Pro-Leu-Gly-Leu-Dpa-Ala-Arg-NH2 [FS-6, fluorescence-quenched MMP-specific peptide substrate]
Km [3]: > 30 µM

ecallantide [DX-88]
affinity to kallikrein [4]: subnanomolar affinity
